Laboratory results reported in the supplement of paper PMC11208160.

Assay: recombinant UMI read abundance after kanamycin selection (control-corrected) (log10(CPM+1)); higher = more efficient recombination; extreme values may be limits of the assay; sequences stand for … in AGTGCAGAGAAAATCGGCCAGTTTTCTCTGCCTGCAGTCCGCATGCCGTGGGACCCCTTGGGTTCTAACCTGTTGCCTAGATTTATGCAGCGGACTGCCTTTCTCCCAAAGTGATAAACCGG…AGGTTGGTTTCACT; site = the 11-nt donor
How it was run: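 Two replicates each of selected and unselected plating were used in this pooled Escherichia coli screen of donor and donor-binding-loop pairs for the IS621 bridge recombinase. Selection was with IPTG (0.07 mM) and kanamycin. Counts of recombinant UMIs, amplified across the donor–target junction, were converted to CPM, averaged, scaled by control-derived factors and reported as log10(CPM+1).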
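Note: IS621 bridge recombinase in Escherichia coli cells against a fixed T5 target plasmid.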

Sequence	recombinant UMI read abundance (log10)
CAATTCCCATGGACCGGTTTTCCCGGTAATCCGTATTTGAT (site CAATTCCCTAG)	0
CAATTCCCATGGACCGGTTTTCCCGGTAATCCGTATTTGAT (site CAATTCCCTAT)	1.7
CAATTCCCATGGACCGGTTTTCCCGGTAATCCGTATTTGCG (site CAATTCCCTAG)	1.26
CAATTCCCATGGACCGGTTTTCCCGGTAATCCGTATTTGCG (site CAATTCCCTCG)	2.33
CAATTCCCATGGACCGGTTTTCCCGGTAATCCGTATTTGCG (site CAATTCCCTGG)	0
CAATTCCCATGGACCGGTTTTCCCGGTAATCCGTATTTGCG (site CAATTCCCTTG)	1.67
CAATTGCCATGGACCGGTTTTCCCGGTAATCCGTATTTGCT (site CAATTACCTAG)	0
CAATTGCCATGGACCGGTTTTCCCGGTAATCCGTATTTGCT (site CAATTCCCTAG)	0
CAATTGCCATGGACCGGTTTTCCCGGTAATCCGTATTTGCT (site CAATTGCCTAG)	1.32
CAATTGCCATGGACCGGTTTTCCCGGTAATCCGTATTTGCT (site CAATTTCCTAG)	0
CACAAAACATGGACCGGTTTTCCCGGTAATCCGTATTTGGC (site CACAAAACTGC)	1.79
CACAAACCATGGACCGGTTTTCCCGGTAATCCGTATTTGGT (site AACAAACCTAC)	0
CACAAACCATGGACCGGTTTTCCCGGTAATCCGTATTTGGT (site CACAAACCTAC)	0
CACAAACCATGGACCGGTTTTCCCGGTAATCCGTATTTGGT (site GACAAACCTAC)	0
CACAAACCATGGACCGGTTTTCCCGGTAATCCGTATTTGGT (site TACAAACCTAC)	0
CACACATCATGGACCGGTTTTCCCGGTAATCCGTATTTGCC (site CACACATCTGG)	2.15
CACACCTCATGGACCGGTTTTCCCGGTAATCCGTATTTGGC (site CACACCTCTGC)	3.07
CACACTGCATGGACCGGTTTTCCCGGTAATCCGTATTTGTA (site CACACTGCTTA)	1.72
CACAGATCATGGACCGGTTTTCCCGGTAATCCGTATTTGAT (site CACAGATCTAT)	2.37
CACATGGCATGGACCGGTTTTCCCGGTAATCCGTATTTGTA (site CACATGGCTTA)	2.31
CACCAGTCATGGACCGGTTTTCCCGGTAATCCGTATTTGAC (site CACCAGTCTGT)	0.85
CACCGTACATGGACCGGTTTTCCCGGTAATCCGTATTTGCG (site CACCGTACTCG)	1.35
CACCGTCCATGGACCGGTTTTCCCGGTAATCCGTATTTGAT (site AACCGTCCTAT)	0.117
CACCGTCCATGGACCGGTTTTCCCGGTAATCCGTATTTGAT (site CACCGTCCTAT)	1.03
CACCGTCCATGGACCGGTTTTCCCGGTAATCCGTATTTGAT (site GACCGTCCTAT)	0.00326

Sequence	recombinant UMI read abundance (log10)
CACCGTCCATGGACCGGTTTTCCCGGTAATCCGTATTTGAT (site TACCGTCCTAT)	0.0173
CACCTCTCATGGACCGGTTTTCCCGGTAATCCGTATTTGCT (site CACCTCTCTAG)	2.84
CACCTGCCATGGACCGGTTTTCCCGGTAATCCGTATTTGTC (site CACCTGCCTGA)	0
CACCTTACATGGACCGGTTTTCCCGGTAATCCGTATTTGGG (site CACCTTACTCC)	0.0575
CACGCAGCATGGACCGGTTTTCCCGGTAATCCGTATTTGCT (site CAAGCAGCTAG)	0
CACGCAGCATGGACCGGTTTTCCCGGTAATCCGTATTTGCT (site CACGCAGCTAG)	2.31
CACGCAGCATGGACCGGTTTTCCCGGTAATCCGTATTTGCT (site CAGGCAGCTAG)	0.261
CACGCAGCATGGACCGGTTTTCCCGGTAATCCGTATTTGCT (site CATGCAGCTAG)	0
CACGCCGCATGGACCGGTTTTCCCGGTAATCCGTATTTGGT (site TTAAGTTCTTG)	0
CACGCGTCATGGACCGGTTTTCCCGGTAATCCGTATTTGAG (site CACGCGTCTCT)	2.11
CACGGCACATGGACCGGTTTTCCCGGTAATCCGTATTTGTT (site CACGGCACTAA)	1.6
CACGGCACATGGACCGGTTTTCCCGGTAATCCGTATTTGTT (site CACGGCCCTAA)	0.00343
CACGGCACATGGACCGGTTTTCCCGGTAATCCGTATTTGTT (site CACGGCGCTAA)	0.6
CACGGCACATGGACCGGTTTTCCCGGTAATCCGTATTTGTT (site CACGGCTCTAA)	0.746
CACGGCTCATGGACCGGTTTTCCCGGTAATCCGTATTTGTT (site CACGGCACTAA)	0.963
CACGGCTCATGGACCGGTTTTCCCGGTAATCCGTATTTGTT (site CACGGCCCTAA)	0.277
CACGGCTCATGGACCGGTTTTCCCGGTAATCCGTATTTGTT (site CACGGCGCTAA)	0.0461
CACGGCTCATGGACCGGTTTTCCCGGTAATCCGTATTTGTT (site CACGGCTCTAA)	3.26
CACGTACCATGGACCGGTTTTCCCGGTAATCCGTATTTGAA (site CACGTACCTTT)	0.24
CACGTCACATGGACCGGTTTTCCCGGTAATCCGTATTTGAG (site CACGTCACTCT)	1.36
CACTACGCATGGACCGGTTTTCCCGGTAATCCGTATTTGGA (site CACTACGCTTC)	1.41
CACTCATCATGGACCGGTTTTCCCGGTAATCCGTATTTGCC (site CACTCATCTGG)	1.74
CACTCATCATGGACCGGTTTTCCCGGTAATCCGTATTTGCC (site CACTCCTCTGG)	0.652
CACTCATCATGGACCGGTTTTCCCGGTAATCCGTATTTGCC (site CACTCGTCTGG)	0
CACTCATCATGGACCGGTTTTCCCGGTAATCCGTATTTGCC (site CACTCTTCTGG)	0

Sequence	recombinant UMI read abundance (log10)
CACTCCACATGGACCGGTTTTCCCGGTAATCCGTATTTGCC (site CACTCCACTGG)	2.65
CACTCCACATGGACCGGTTTTCCCGGTAATCCGTATTTGCC (site CACTCCCCTGG)	0
CACTCCACATGGACCGGTTTTCCCGGTAATCCGTATTTGCC (site CACTCCGCTGG)	1.8
CACTCCACATGGACCGGTTTTCCCGGTAATCCGTATTTGCC (site CACTCCTCTGG)	1.26
CACTCCGCATGGACCGGTTTTCCCGGTAATCCGTATTTGCC (site CACTCCACTGG)	2.05
CACTCCGCATGGACCGGTTTTCCCGGTAATCCGTATTTGCC (site CACTCCCCTGG)	0
CACTCCGCATGGACCGGTTTTCCCGGTAATCCGTATTTGCC (site CACTCCGCTGG)	2.73
CACTCCGCATGGACCGGTTTTCCCGGTAATCCGTATTTGCC (site CACTCCTCTGG)	1.36
CACTCCTCATGGACCGGTTTTCCCGGTAATCCGTATTTGAG (site CACTCCTCTCT)	0.883
CACTCCTCATGGACCGGTTTTCCCGGTAATCCGTATTTGCA (site CACTCCTCTAG)	0.743
CACTCCTCATGGACCGGTTTTCCCGGTAATCCGTATTTGCA (site CACTCCTCTCG)	1.09
CACTCCTCATGGACCGGTTTTCCCGGTAATCCGTATTTGCA (site CACTCCTCTGG)	1.21
CACTCCTCATGGACCGGTTTTCCCGGTAATCCGTATTTGCA (site CACTCCTCTTG)	2.98
CACTCCTCATGGACCGGTTTTCCCGGTAATCCGTATTTGCC (site AACTCCTCTGG)	0.563
CACTCCTCATGGACCGGTTTTCCCGGTAATCCGTATTTGCC (site CAATCCTCTGG)	0.883
CACTCCTCATGGACCGGTTTTCCCGGTAATCCGTATTTGCC (site CACACCTCTGG)	1.79
CACTCCTCATGGACCGGTTTTCCCGGTAATCCGTATTTGCC (site CACCCCTCTGG)	2.8
CACTCCTCATGGACCGGTTTTCCCGGTAATCCGTATTTGCC (site CACGCCTCTGG)	0.524
CACTCCTCATGGACCGGTTTTCCCGGTAATCCGTATTTGCC (site CACTACTCTGG)	1.17
CACTCCTCATGGACCGGTTTTCCCGGTAATCCGTATTTGCC (site CACTCATCTGG)	0.425
CACTCCTCATGGACCGGTTTTCCCGGTAATCCGTATTTGCC (site CACTCCACTGG)	0.838
CACTCCTCATGGACCGGTTTTCCCGGTAATCCGTATTTGCC (site CACTCCCCTGG)	0.105
CACTCCTCATGGACCGGTTTTCCCGGTAATCCGTATTTGCC (site CACTCCGCTGG)	0.0071
CACTCCTCATGGACCGGTTTTCCCGGTAATCCGTATTTGCC (site CACTCCTCTAG)	1.36
CACTCCTCATGGACCGGTTTTCCCGGTAATCCGTATTTGCC (site CACTCCTCTCG)	0.00305
